Legend:
D-aminoacylase = experiment: Substrate specificity of purified D-aminoacylase (TNBS method); format: biochemical, Hypomyces mycophilus IFO 6785
Method: The enzyme activity was assayed by determining the amount of amino acid produced using the TNBS method and the HPLC method. In the TMBS method, 100 mM Na2B4O7 (0.5 ml) was added to a sample solution containing amino acid (0.5 ml), 20 μl of 110 mM TNBS (trinitrobenzenesulfonic acid) was then added, and the resulting mixture was quickly stirred. After 5 min, 100 mM NaH2PO4 containing 1.5 mM Na2SO3 (2 ml) was added to the reaction mixture to terminate the color reaction, and the absorbance at 420 nm was measured. HPLC was performed by subjecting a sample solution containing amino acid to high-performance liquid chromatography using an ODS column (column, Wakosil II 5C18 (4.6 dia.×250 mm) (Wako Pure Chemical); eluent, CH3CN/50 mM KH2PO4. H3PO4 (pH 2.5)=2:8; detection, A280 nm; and flow rate, 1.0 ml/min). The retention times were 3.5 min for D-tryptophan and 9.8 min for N-acetyl-D-tryptophan. Using D-tryptophan as the assay standard, one unit (or U) of the enzyme was defined as the amount of the enzyme required to produce 1 μmol of D-tryptophan at 30° C. for 1 min.
Substrate specificity of the enzyme was expressed as the percentage of the specific activity compared with that for N-acetyl-D-methionine taken as 100%. N-chloroacetyl-D-phenylalanine, N-acetyl-D-valine, N-acetyl-D-phenylalanine, N-acetyl-D-tryptophan, N-acetyl-D-leucine, N-acetyl-L-valine, N-acetyl-L-phenylalanine, N-acetyl-L-tryptophan, and N-acetyl-L-leucine substrates were used for the comparison. The enzyme reaction was performed in 50 mM Tris-HCl (pH 7.5) containing 1 µl of the enzyme solution and 20 mM of each substrate (total volume 1.0 ml) at 30° C. for 20 min, and terminated by adding 0.5 ml of a TCA reaction terminating solution according to Tsai et al. (consisting of 110 mM trichloroacetic acid, 220 mM sodium acetate, and 330 mM acetic acid). The enzyme activity was assayed by the TNBS method as described in Example 4(2).

[1] = system: Hypomyces broomeanus IFO 9164 strain; experiment: D-amino acid production from N-acetyl-D-amino acid by washed fungal cells; format: cell-based; details: Hypomyces broomeanus IFO 9164 cells; 0.1% substrate, Tris-HCl pH 7.5, 30° C., 24 hours
Method: (§1) A platinum loopful of Hypomyces aurantius IFO 6847 strain, Hypomyces broomeanus IFO 9164 strain, Hypomyces rosellus IFO 6911 strain, Hypomyces chrysospermus IFO 6817 strain, Hypomyces sepulcralis IFO 9102 strain, Hypomyces subiculosus IFO 6892 strain, Hypomyces mycophilus ATCC 76474 or IFO 6785 strain, or Fusarium solani IFO 9974 or IFO 9975 strain was inoculated into 25 ml of YM medium (containing 0.3% yeast extract, 0.3% malt extract, 0.5% peptone, and 2.0% glucose, pH 6.0) in a 500-ml shouldered flask. The fungi were shake-cultured at 24° C. for 3 days. After culturing, a 5-ml aliquot of the culture medium was centrifuged in a refrigerated centrifuge to collect the fungal cells. The cells were washed with physiological saline solution (5 ml) and collected by centrifugation again. A reaction solution (containing 0.1% N-acetyl-D-amino acid shown in Table 1 below in Tris-HCl buffer, pH 7.5) was then added to the cells thus collected. The mixture was incubated in a 5-ml test tube with shaking at 30° C. for 24 hours.
(§2) D-Amino acid thus produced was determined by high-performance liquid chromatography (column, CROWNPAK CR (Daicel Chemical); column temperature, 26° C.; cooled in ice for only valine; mobile phase, HClO4 aqueous solution, pH 2.0; flow rate, 1 ml/min; and detection, 200 nm).

[2] = system: Hypomyces chrysospermus IFO 6817 strain; experiment: as above; format: cell-based; details: Hypomyces chrysospermus IFO 6817 cells; 0.1% substrate, Tris-HCl pH 7.5, 30° C., 24 hours
Method: as §1, §2

[3] = system: Hypomyces aurantius IFO 6847 strain; experiment: as above; format: cell-based; details: Hypomyces aurantius IFO 6847 cells; 0.1% substrate, Tris-HCl pH 7.5, 30° C., 24 hours
Method: as §1, §2

[4] = system: Hypomyces mycophilus IFO 6785 strain; experiment: as above; format: cell-based; details: Hypomyces mycophilus IFO 6785 cells; 0.1% substrate, Tris-HCl pH 7.5, 30° C., 24 hours
Method: as §1, §2

[5] = system: Hypomyces sepulcralis IFO 9102 strain; experiment: as above; format: cell-based; details: Hypomyces sepulcralis IFO 9102 cells; 0.1% substrate, Tris-HCl pH 7.5, 30° C., 24 hours
Method: as §1, §2

Fusarium solani IFO 9974 = experiment: as above; format: cell-based; details: Fusarium solani IFO 9974 cells; 0.1% substrate, Tris-HCl pH 7.5, 30° C., 24 hours
Method: as §1, §2

[6] = system: Hypomyces rosellus IFO 6911 strain; experiment: as above; format: cell-based; details: Hypomyces rosellus IFO 6911 cells; 0.1% substrate, Tris-HCl pH 7.5, 30° C., 24 hours
Method: as §1, §2

[7] = system: Hypomyces subiculosus IFO 6892 strain; experiment: as above; format: cell-based; details: Hypomyces subiculosus IFO 6892 cells; 0.1% substrate, Tris-HCl pH 7.5, 30° C., 24 hours
Method: as §1, §2

[8] = system: Fusarium solani IFO 9975 strain; experiment: as above; format: cell-based; details: Fusarium solani IFO 9975 cells; 0.1% substrate, Tris-HCl pH 7.5, 30° C., 24 hours
Method: as §1, §2

[9] = system: Hypomyces mycophilus ATCC 76474; experiment: as above; format: cell-based; details: Hypomyces mycophilus ATCC 76474 cells; 0.1% substrate, Tris-HCl pH 7.5, 30° C., 24 hours
Method: as §1, §2

[10] = system: D-aminoacylase (crude enzyme) of Pythium aphanidermaatum IFO 7030; experiment: Crude enzyme activity for each N-Ac-D-amino acid substrate; format: biochemical; details: Pythium aphanidermaatum IFO 7030 crude enzyme; 20 mM substrate, 1 mM CoCl2, 50 mM phosphate buffer pH 7.0
Method: (§3) Auricularia auriculajudae IFO 5949, Pythium aphanidermaatum IFO 7030, and Menisporopsis novaezelandiae IFO 9179 were each inoculated into sterilized media (100 ml each) (Czapek Dox Broth for IFO 5949, YM1 medium for IFO 7030, and POTATO DEXTROSE BROTH for IFO 9179) in 500-ml Erlenmeyer flasks. The fungi were cultured on a rotary shaker at 210 rpm at 24° C. for 7 days and collected by centrifugation using a […] centrifuge with a RPR10-2 rotor at 8,000 rpm (12,500×g) for 20 min. […] Disrupted cells thus obtained were centrifuged using a […] centrifuge with a RPR20-2 rotor at 17,500 rpm (38,000×g) for 30 min at 4° C. to obtain the supernatant as the crude enzyme. […] Figures in the table denote the amount (mM) of D-amino acids produced from the corresponding N-acetyl-D-amino acids. The D-aminoacylase activity was detected in all the strains tested, producing D-amino acid from the corresponding N-acetyl-D-amino acid.

[11] = system: D-aminoacylase (crude enzyme) of Auricularia auriculajudae IFO 5949; experiment: as above; format: biochemical; details: Auricularia auriculajudae IFO 5949 crude enzyme; 20 mM substrate, 1 mM CoCl2, 50 mM phosphate buffer pH 7.0
Method: as §3

[12] = system: D-aminoacylase (crude enzyme) of Menisporopsis novaezelandiae IFO 9179; experiment: as above; format: biochemical; details: Menisporopsis novaezelandiae IFO 9179 crude enzyme; 20 mM substrate, 1 mM CoCl2, 50 mM phosphate buffer pH 7.0
Method: as §3

percentage of the specific activity compared with that for N-acetyl-D-methionine taken as 100%, D-enantiomer (D-aminoacylase; 20 mM substrate, 50 mM Tris-HCl pH 7.5, 30° C., 20 min): 100%
activity of the enzyme for the substrate (in words) (D-aminoacylase; summary of Table 5): very active
amount of D-amino acids produced from the corresponding N-acetyl-D-amino acids [10]: 0.90 mM
amount of D-amino acids produced from the corresponding N-acetyl-D-amino acids [11]: 2.45 mM
amount of D-amino acids produced from the corresponding N-acetyl-D-amino acids [12]: 0.89 mM
SMILES: CSCC[C@@H](NC(C)=O)C(=O)O [N-acetyl-D-methionine]
D-amino acid produced from N-acetyl-D-amino acid [1]: 0.01 mg/mL
D-amino acid produced from N-acetyl-D-amino acid [2]: 0.12 mg/mL
D-amino acid produced from N-acetyl-D-amino acid [3]: 0.02 mg/mL
D-amino acid produced from N-acetyl-D-amino acid [4]: 0.71 mg/mL
D-amino acid produced from N-acetyl-D-amino acid [5]: 0.24 mg/mL
D-amino acid produced from N-acetyl-D-amino acid (Fusarium solani IFO 9974): 0.04 mg/mL
D-amino acid produced from N-acetyl-D-amino acid [6]: 0.14 mg/mL
D-amino acid produced from N-acetyl-D-amino acid [7]: 0.03 mg/mL
D-amino acid produced from N-acetyl-D-amino acid [8]: 0.02 mg/mL
D-amino acid produced from N-acetyl-D-amino acid [9]: 0.10 mg/mL
